In PubChem BioAssay (NCI):
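Cultured in 96-well plates, cells were exposed to test compound for 48 hours across five concentrations. TGI denotes the concentration required for complete inhibition of growth.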

Tests used:
Experiment in all cases: DTP human tumour cell line panel, 48 h
UACC-62 melanoma = test system: UACC-62 melanoma
HOP-92 NSCLC = test system: HOP-92 NSCLC
SW-620 colon = test system: SW-620 colon
A498 renal = test system: A498 renal
LOX IMVI melanoma = test system: LOX IMVI melanoma
DU-145 prostate = test system: DU-145 prostate
K-562 leukemia = test system: K-562 leukemia
MOLT-4 leukemia = test system: MOLT-4 leukemia
OVCAR-5 ovarian = test system: OVCAR-5 ovarian
HOP-62 NSCLC = test system: HOP-62 NSCLC
MDA-MB-435 = test system: MDA-MB-435
M14 melanoma = test system: M14 melanoma
EKVX NSCLC = test system: EKVX NSCLC
NCI-H522 lung = test system: NCI-H522 lung
HS 578T breast = test system: HS 578T breast
SK-MEL-5 melanoma = test system: SK-MEL-5 melanoma
786-0 renal = test system: 786-0 renal
HT29 colon = test system: HT29 colon
CAKI-1 renal = test system: CAKI-1 renal

Measured: TGI

CCSC1=N/C(=C\c2ccco2)C(=O)N1
not listed: CAKI-1 renal
> 100 µM: all other assays above

CC(C)OP(=O)(OC(C)C)C(C)(C)O
not listed: A498 renal
> 100 µM: all other assays above

CCc1n[nH]c(=O)n1/N=C(\C)c1ccccc1
not listed: HOP-92 NSCLC
> 100 µM: all other assays above
